Source: PMC4728507, “Bioactive Polycyclic Quinones from Marine Streptomyces sp. 182SMLY” (Marine Drugs, 2016)
Values after ≈ are worked out from the molar mass of the structure shown. Read-outs that look alike come from different tables or passages of the source.

Tests used:
[1] = tested on: normal human astrocytes (HA); experiment: Activity against normal human astrocytes (HA); assay type: cell-based; details: Homo sapiens, Astrocyte; HA cells, second assay in higher concentrations
Method: (§1) The compounds 1 and 2 were assayed for their activities inhibiting the proliferation of glioma C6, U251, U87-MG, and SHG-44 cells using the sulforhodamine B (SRB) assay. The SRB assay is a method that measures total cellular protein content for evaluating the activity of tested compounds against the proliferation of tumor cells. Doxorubicin (DOX) was used as a positive control. Glioma cells were treated with tested compounds for 72 h at different concentrations. […] N-acetyl-N-demethylmayamycin (1) and streptoanthraquinone A (2) were also assayed for their activity against normal human astrocytes (HA). The initial assay was conducted on the concentrations from 0.35 to 7.0 μM for 1 and on those from 1.65 to 16.5 μM for 2. The cell viability of HA cells from each tested concentration of both compounds was 100%.
(§2) Human glioma U251 and rat glioma C6 cells were cultured in DMEM (Dulbecco’s Modified Eagle Medium, Gibco, Thermo Fisher Scientific Inc., Waltham, MA, USA) with 10% FBS (Fetal Bovine Serum, PAA Laboratories Inc., Dartmouth, MA, USA), human glioma SHG-44 in RPMI-1640 Medium (Roswell Park Memorial Institution 1640 Medium, Gibco, Thermo Fisher Scientific Inc., Waltham, MA, USA), human glioma U87-MG cells in MEM (Minimum Essential Medium, Gibco), and normal human astrocytes (HA) in AM (Astrocyte Medium, ScienCell, Cat. No. 1801). All cells were incubated at 37 °C in a humidified incubator with 5% CO2. Cells after the third generation were used for experiment.

[2] = Activity against normal human astrocytes (HA); assay type: cell-based; details: human, normal human astrocytes (HA), initial assay, read-out: Cell viability of HA cells
Method: as §1, §2

glioma U87-MG cells = experiment: SRB assay, proliferation of glioma U87-MG cells; assay type: cell-based; details: Homo sapiens, U-87 MG, 72 h, read-out: IC50 inhibiting the proliferation of cells, U87-MG
Method: as §1, §2
(§3) The SRB assay was used to evaluate the activity of the isolated compounds in inhibiting the proliferation of glioma U87-MG, U251, SHG-44, and C6 cells. Doxorubicin (DOX) was used as the positive control. Briefly, glioma cells were plated in a 96-well plate and then treated with different concentrations of tested compound after cells adhesion for 24 h. […] After dried, dye was dissolved in a 10 mM Tris buffer and measured at 515 nm on a microplate reader (BioTech, Winooski, VT, USA).

[3] = tested on: Escherichia coli ATCC 25922; experiment: Antimicrobial assay, micro broth dilution, E. coli; assay type: cell-based; details: ATCC 25922, micro broth dilution
Method: (§4) Compounds 1 and 2 were also determined for their activities against methicillin-resistant Staphylococcus aureus ATCC 43300 and Escherichia coli ATCC 25922.
(§5) The micro broth dilution method as described in the previous report was used to determine the antimicrobial activity of the isolated compounds against the methicillin-resistant Staphylococcus aureus ATCC 43300 and Escherichia coli ATCC 25922. Norfloxacin, a broad-spectrum antibiotic against both Gram-positive and Gram-negative bacteria, was used as the positive control.

glioma SHG-44 cells = experiment: SRB assay, proliferation of glioma SHG-44 cells; assay type: cell-based; details: Homo sapiens, 72 h, read-out: IC50 inhibiting the proliferation of cells, SHG-44
Method: as §1, §2, §3

glioma U251 cells [4] = experiment: SRB assay, proliferation of glioma U251 cells; assay type: cell-based; details: Homo sapiens, U-251, 72 h, read-out: IC50 inhibiting the proliferation of cells, U251
Method: as §1, §2, §3

[5] = tested on: methicillin-resistant Staphylococcus aureus ATCC 43300; experiment: Antimicrobial assay, micro broth dilution, MRSA; assay type: cell-based; details: ATCC43300, ATCC 43300, micro broth dilution, read-out: MIC, growth of methicillin-resistant S. aureus
Method: as §4, §5

glioma C6 cells = experiment: SRB assay, proliferation of glioma C6 cells; assay type: cell-based; details: Rattus norvegicus, 72 h, read-out: IC50 inhibiting the proliferation of cells, C6
Method: as §1, §2, §3

glioma U251 cells [6] = experiment: Apoptosis in glioma U251 cells, flow cytometry with Annexin V-FITC/PI double staining; assay type: cell-based, human; details: 36 h, control 3.58%
Method: N-acetyl-N-demethylmayamycin (1) and streptoanthraquinone A (2) were further tested for their ability to induce apoptosis in glioma U251 cells by flow cytometry using Annexin V-FITC/PI double staining.
Figure 6 N-acetyl-N-demethylmayamycin (1) and streptoanthraquinone A (2) induced apoptosis in the glioma U251 cells quantified by cytometric analysis. U251 cells were treated with 1 (0.7 μM) or 2 (3.3 μM) for 36 h and then stained with Annexin-V FITC and PI double staining (B1: necrotic cells; B2: late apoptotic cells; B3: normal glioma cells; B4: early apoptotic cells). TEXT PRINTED IN THE PICTURE: 1: U251: B1: 2.87% (0.7 μM); U251: B2: 31.39% (0.7 μM); U251: B3: 54.79% (0.7 μM); U251: B4: 10.95% (0.7 μM) | 2: U251: B1: 3.00% (3.3 μM); U251: B2: 29.85% (3.3 μM); U251: B3: 56.75% (3.3 μM); U251: B4: 10.40% (3.3 μM) DOUBTS OF THE COPYIST ABOUT THIS PICTURE: 1, B3: 54.79% is partly covered by plot points, digits not certain / 2, B3: 56.75% is partly covered by plot points, digits not certain / The CON (untreated control) plot prints B1 0.28%, B2 2.17%, B3 96.14% (partly covered by plot points, 96.14 or 96.44), B4 1.41%; left out of lines because it is not a substance

[7] = tested on: glioma C6, U251, U87-MG, and SHG-44 cells; experiment: SRB assay, four glioma cell lines (summary ranges); assay type: cell-based; details: 72 h, read-out: IC50 range over four tested glioma cell lines
Method: as §1
The SRB assay was used to evaluate the activity of the isolated compounds in inhibiting the proliferation of glioma U87-MG, U251, SHG-44, and C6 cells. Doxorubicin (DOX) was used as the positive control. Briefly, glioma cells were plated in a 96-well plate and then treated with different concentrations of tested compound after cells adhesion for 24 h. After 72 h of the treatment, cells were fixed with 50 μL of a 10% cold TCA solution for 1 h at 4 °C, washed with distilled water five times, and then dried at room temperature. The dried cells were stained with 50 μL of 0.4% SRB for ten minutes and rinsed with a 1% acetic acid solution five times. After dried, dye was dissolved in a 10 mM Tris buffer and measured at 515 nm on a microplate reader (BioTech, Winooski, VT, USA).

SMILES	IC50 [1]	viability ([2]; each tested concentration from 0.35 to 7.0 μM)	IC50 (glioma U87-MG cells)	MIC, growth of E. coli [3]	IC50 (glioma SHG-44 cells)	IC50 (glioma U251 cells [4])	MIC [5]	IC50 (glioma C6 cells)	Increase of total apoptotic cells (early and late) compared to the control (glioma U251 cells [6]; U251, 0.7 μM)	IC50 [7]	MIC ([3]; Escherichia coli, ATCC25922, read-out: MIC, growth of E. coli)	viability ([2]; each tested concentration from 1.65 to 16.5 μM)	Increase of total apoptotic cells (early and late) compared to the control (glioma U251 cells [6]; U251, 3.3 μM)
CC(=O)NC1CC(c2c(O)c3c(c4c(O)cc(C)cc24)C(=O)c2cccc(O)c2C3=O)OC(C)C1O (centres unmarked) [Compound 1, N-acetyl-N-demethylmayamycin]	25 ± 1.3 µM	100%	1.4 ± 0.1 µM	no activity	3.9 ± 0.4 µM	0.7 ± 0.2 µM	20 µM (≈ 9.83 µg/mL)	0.5 ± 0.1 µM	38.76%	0.5 to 3.9 µM			
CCn1cc(C(=O)O)c(=O)c2cc(F)c(N3CCNCC3)cc21 [norfloxacin, reference compound]							62.6 µM (≈ 20 µg/mL)				31.3 µM (≈ 10 µg/mL)		
CC(=O)OC1c2c3c(c(O)c4c2C(Cc2c(O)cc(C)cc2-4)OC1C)C(=O)c1cccc(O)c1C3=O (centres unmarked) [Compound 2, streptoanthraquinone A]	> 100 µM		4.6 ± 0.3 µM	no activity	6.5 ± 1.1 µM	3.3 ± 0.3 µM		7.3 ± 1.4 µM		3.3 to 7.3 µM		100%	36.67%
COc1cccc2c1C(=O)c1c(O)c3c(c(O)c1C2=O)C[C@@](O)(C(=O)CO)C[C@@H]3O[C@H]1C[C@H](N)[C@H](O)[C@H](C)O1 [Doxorubicin (DOX), Doxorubicin, reference compound]			0.9 ± 0.1 µM		9 ± 0.8 µM	6.7 ± 1.1 µM		1 ± 0.1 µM		0.9 to 9 µM			
